{
  "source": "patent US20060014812A1",
  "about": "“Use of estrogen related receptor-modulating aryl ethers” (priority 2004, published 2006)",
  "data": [
    {"target": "T1, ligand binding domain of ERR-α (aa 183-424) (Homo sapiens, UniProt P11474)", "T1 construct": "His tag (N); thrombin cleavage site (N); made in house; host or cells: E. coli BL21(DE3+)", "T1 sequence (P11474 183-423 limits assumed)": "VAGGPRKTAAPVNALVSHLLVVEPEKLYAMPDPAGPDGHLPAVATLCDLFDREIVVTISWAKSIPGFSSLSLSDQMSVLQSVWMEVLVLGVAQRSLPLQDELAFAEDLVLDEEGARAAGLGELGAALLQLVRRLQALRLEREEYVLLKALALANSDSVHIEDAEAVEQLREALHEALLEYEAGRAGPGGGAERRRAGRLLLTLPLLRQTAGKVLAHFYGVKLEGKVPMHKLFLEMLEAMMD", "assay": "ThermoFluor thermal-shift binding affinity screen against ERR-α ligand binding domain", "conditions": "100 μM test compound, 0.1 mg/mL ERR-α, pH 7.6, Kd estimated from melting temperature shift at reference temperature, read-out: TF Kd", "method": "The ligand binding domain of ERR-α (aa 183-424) was subcloned in frame with the N-terminal His tag and the cleavable thrombin site in pET28. The protein was expressed in BL21(DE3^+) following induction with 100 μM IPTG at 16° C. Cells were harvested after 16 hours (h) of induction and lysed in 20 mM Tris pH 7.5, 500 mM NaCl, 5 mM imidazole, 5% glycerol, protease inhibitor cocktail (-EDTA) and 2 mM β-ME. Insoluble material was removed by centrifugation at 40,000×g for 1 hr. Clarified homogenate was applied on a Ni-NTA column and after applying an imidazole gradient the protein was eluted. The protein was further purified on size exclusion chromatography to an apparent homogeneity of 95% as judged by SDS-PAGE chromatography.\nBinding affinities of compounds were determined by screening against the ligand binding domain of ERR-α using ThermoFluor® technology (U.S. Pat. No. 6,020,141 and U.S. Pat. No. 6,036,920, and Journal of Biomolecular Screening 6 (6), […], pgs 429-440). Assay plates were prepared by dispensing 2 μL of a protein-dye solution and 2 μL of the test compound in a 384-well plate. The conditions used in the screen were: 0.1 mg/mL ERR-α, 25 mM Na-phosphate buffer at pH 7.6, 200 mM NaCl, 10% glycerol, 16 μM ANS, 2% DMSO and the final concentration of test compound was 100 μM. Finally 1 μL of mineral oil was dispensed on top to prevent evaporation during the high throughput screen (HTS). ThermoFluor® is an HTS assay that measures protein unfolding based on fluorescence detection of the denatured form of the protein. The reporter for the protein unfolding event is the environmentally sensitive dye ANS that is incorporated in the screening buffer. During a typical experiment the 384-well plate is heated at a ramping rate of 1° C./min and the thermal unfolding of the protein is monitored at 1° C. intervals by measuring fluorescence changes detected through a CCD camera. Captured images are integrated and a melting curve is generated that relates fluorescence to fraction of unfolded protein as a function of temperature. For the ERR-α screen, data were collected from 30 to 80° C. at 1° C. intervals and the protein melted under the screening conditions with a characteristic melting temperature, Tm, of 52.1° C. Hits were identified from the screen by measuring an increase in the melting temperature of the protein.\nIn order to estimate binding affinities, it was taken into account that the oligomeric state of ERR-α, which is a dimer (N2), and that of a single ligand (Lf) can interact per monomer subunit with equal affinity. The melting curve for such a system is described by the following three equilibria: [formula] The first equilibrium describes the denaturation of ERR-α dimers; the second equilibrium describes the dissociation of the first ligand from the single ligand occupied ERR-α dimers (N2L); and the third equilibrium describes the dissociation of the second ligand from the fully occupied ERR-α dimers (N2L2).\nFollowing the derivations of Brandts and Lin (Biochemistry, 29, 6967, 1990) the dissociation constants for the ligands (Kd1^t^m) can be determined at T=Tm for any ligand concentration Lt by solving numerically the conservation of mass equations: [formula] and Ku is in the unfolding equilibrium constant for ERR-α dimers that is calculated from the melting curve of the protein in the absence of ligand as described by Pantoliano et al. (J. Biomolecular Screening, 6, 429, 2001) and Bowie & Sauer (Biochemistry, 28, 7139, 1989).\nTo compare dissociation constants at a common reference temperature, Tref, the following equation was used: [formula] where • Kd^ref=is the dissociation constant of the ligand at a reference temperature Tref • ΔHb^ref=is the binding enthalpy of the ligand to the protein at a reference temperature Tref. […]", "units": {"Kd": "µM"}, "values": [
      {"smiles": "COc1ccc(Oc2ccc(C=C3SC(N)=NC3=O)cc2)cc1", "note": "[Example 9, 2-Amino-5-[4-(4-methoxy-phenoxy)-benzylidene]-thiazol-4-one]", "Kd": 24.7},
      {"smiles": "COc1cc(/C=C2\\SC(=O)NC2=O)ccc1Oc1ccc(C(F)(F)F)cc1[N+](=O)[O-]", "note": "[Example 10, 5-[3-Methoxy-4-(2-nitro-4-trifluoromethyl-phenoxy)-benzylidene]-thiazolidine-2,4-dione]", "Kd": 0.234},
      {"smiles": "COc1cc(/C=C2\\SC(=O)NC2=O)cc(Cl)c1Oc1ccc(C(F)(F)F)cc1[N+](=O)[O-]", "note": "[Example 13, 5-[3-Chloro-5-methoxy-4-(2-nitro-4-trifluoromethyl-phenoxy)-benzylidene]-thiazolidine-2,4-dione]", "Kd": 79.5},
      {"smiles": "O=C1NC(=O)/C(=C/c2ccc(Oc3ccc(C(F)(F)F)cc3[N+](=O)[O-])cc2)S1", "note": "[Example 14, 5-[4-(2-Nitro-4-trifluoromethyl-phenoxy)-benzylidene]-thiazolidine-2,4-dione]", "Kd": 0.588},
      {"smiles": "COc1ccc(Oc2ccc(/C=C3\\SC(=O)NC3=O)cc2)cc1", "note": "[Example 16, 5-[4-(4-Methoxy-phenoxy)-benzylidene]-thiazolidine-2,4-dione]", "Kd": 3.53},
      {"smiles": "CCOC(=O)CN1C(=O)S/C(=C\\c2ccc(Oc3ccc(C(F)(F)F)cc3[N+](=O)[O-])c(OC)c2)C1=O", "note": "[Example 17, {5-[3-Methoxy-4-(2-nitro-4-trifluoromethyl-phenoxy)-benzylidene]-2,4-dioxo-thiazolidin-3-yl}-acetic acid ethyl ester]", "Kd": 4.86},
      {"smiles": "COC(=O)c1ccc(Oc2ccc(/C=C3\\SC(=O)NC3=O)cc2OC)c([N+](=O)[O-])c1", "note": "[Example 18, 4-[4-(2,4-Dioxo-thiazolidin-5-ylidenemethyl)-2-methoxy-phenoxy]-3-nitro-benzoic acid methyl ester]", "Kd": 0.0692},
      {"smiles": "CCCCN1C(=O)S/C(=C\\c2ccc(Oc3ccc(C(F)(F)F)cc3[N+](=O)[O-])c(OC)c2)C1=O", "note": "[Example 19, 3-Butyl-5-[3-methoxy-4-(2-nitro-4-trifluoromethyl-phenoxy)-benzylidene]-thiazolidine-2,4-dione]", "Kd": 2.7},
      {"smiles": "O=C1NC(=O)/C(=C/c2ccc(Oc3ccccc3)cc2)S1", "note": "[Example 20, 5-(4-Phenoxy-benzylidene)-thiazolidine-2,4-dione]", "Kd": 9.5},
      {"smiles": "O=C1NC(=O)/C(=C\\c2cccc(Oc3cccc(Cl)c3)c2)S1", "note": "[Example 21, 5-[3-(3-Chloro-phenoxy)-benzylidene]-thiazolidine-2,4-dione]", "Kd": "> 200"},
      {"smiles": "COc1cc(C=C(C#N)C#N)ccc1Oc1ccc(C(F)(F)F)cc1[N+](=O)[O-]", "note": "[Example 22, 2-[3-Methoxy-4-(2-nitro-4-trifluoromethyl-phenoxy)-benzylidene]-malononitrile]", "Kd": 5.06},
      {"smiles": "COc1cc(/C=C(\\C#N)S(=O)(=O)c2ccccc2)ccc1Oc1ccc(C(F)(F)F)cc1[N+](=O)[O-]", "note": "[Example 23, 2-Benzenesulfonyl-3-[3-methoxy-4-(2-nitro-4-trifluoromethyl-phenoxy)-phenyl]-acrylonitrile]", "Kd": 14.6},
      {"smiles": "CCOC(=O)/C(C#N)=C/c1ccc(Oc2ccc(C(F)(F)F)cc2[N+](=O)[O-])c(OC)c1", "note": "[Example 24, 2-Cyano-3-[3-methoxy-4-(2-nitro-4-trifluoromethyl-phenoxy)-phenyl]-acrylic acid ethyl ester]", "Kd": 2.54},
      {"smiles": "COc1cc(/C=C(\\C#N)c2cccs2)ccc1Oc1ccc(C(F)(F)F)cc1[N+](=O)[O-]", "note": "[Example 25, 3-[3-Methoxy4-(2-nitro4-trifluoromethyl-phenoxy)-phenyl]-2-thiophen-2-yl-acrylonitrile]", "Kd": 7.17},
      {"smiles": "COc1cc(/C=C(\\C#N)c2nc3ccccc3[nH]2)ccc1Oc1ccc(C(F)(F)F)cc1[N+](=O)[O-]", "note": "[Example 26, 2-(1H-Benzoimidazol-2-yl)-3-[3-methoxy-4-(2-nitro-4-trifluoromethyl-phenoxy)-phenyl]-acrylonitrile]", "Kd": 15.2},
      {"smiles": "COc1cc(/C=C(\\C#N)c2ccccn2)ccc1Oc1ccc(C(F)(F)F)cc1[N+](=O)[O-]", "note": "[Example 27, 3-[3-Methoxy-4-(2-nitro-4-trifluoromethyl-phenoxy)-phenyl]-2-pyridin-2-yl-acrylonitrile]", "Kd": 1.38},
      {"smiles": "COc1cc(/C=C(\\C#N)C(=O)c2ccccc2)ccc1Oc1ccc(C(F)(F)F)cc1[N+](=O)[O-]", "note": "[Example 28, 2-Benzoyl-3-[3-methoxy-4-(2-nitro-4-trifluoromethyl-phenoxy)-phenyl]-acrylonitrile]", "Kd": 0.608},
      {"smiles": "COc1cc(/C=C(/C(=O)c2cccs2)C(=O)C(F)(F)F)ccc1Oc1ccc(C(F)(F)F)cc1[N+](=O)[O-]", "note": "[Example 29, 4,4,4-Trifluoro-2-[3-methoxy-4-(2-nitro-4-trifluoromethyl-phenoxy)-benzylidene]-1-thiophen-2-yl-butane-1,3-dione]", "Kd": 15.4},
      {"smiles": "COc1cc(/C=C2\\C(=O)N(c3ccccc3)N=C2C)ccc1Oc1ccc(C(F)(F)F)cc1[N+](=O)[O-]", "note": "[Example 30, 4-[3-Methoxy-4-(2-nitro-4-trifluoromethyl-phenoxy)-benzylidene]-5-methyl-2-phenyl-2,4-dihydro-pyrazol-3-one]", "Kd": 1.16},
      {"smiles": "COc1cc(/C=C2/NC(=S)NC2=O)ccc1Oc1ccc(C(F)(F)F)cc1[N+](=O)[O-]", "note": "[Example 31, 5-[3-4-(2-nitro-4-trifluoromethyl-phenoxy)-benzylidene]-2-thioxo-imidazolidin-4 4-one]", "Kd": 2.2},
      {"smiles": "COc1cc(/C=C2\\C(=O)ON=C2c2ccccc2)ccc1Oc1ccc(C(F)(F)F)cc1[N+](=O)[O-]", "note": "[Example 32, 4-[3-4-(2-nitro-4-trifluoromethyl-phenoxy)-benzylidene]-3-phenyl-4H-isoxazol-5-one]", "Kd": 0.795},
      {"smiles": "COc1cc(C=C2C(=O)c3ccccc3C2=O)ccc1Oc1ccc(C(F)(F)F)cc1[N+](=O)[O-]", "note": "[Example 33, 2-[3-4-(2-nitro-4-trifluoromethyl-phenoxy)-benzylidene]-indan-1,3-dione]", "Kd": 0.473},
      {"smiles": "COC(=O)c1ccc(Oc2ccc(C=C3C(=O)c4ccccc4C3=O)cc2OC)c([N+](=O)[O-])c1", "note": "[Example 35, 4-[4-(1,3-Dioxo-indan-2-ylidenemethyl)-2-methoxy-phenoxy]-3-nitro-benzoic acid methyl ester]", "Kd": 0.52},
      {"smiles": "CCN1C(=O)/C(=C\\c2ccc(Oc3ccc(C(F)(F)F)cc3[N+](=O)[O-])c(OC)c2)SC1=S", "note": "[Example 36, 3-Ethyl-5-[3-methoxy-4-(2-nitro-4-trifluoromethyl-phenoxy)-benzylidene]-2-thioxo-thiazolidin-4-one]", "Kd": 20.3},
      {"smiles": "COc1cc(/C=C2\\SC(=O)NC2=O)ccc1OCc1ccc(F)cc1Cl", "note": "[Example 37, 5-[4-(2—Chloro-4-fluoro-benzyloxy)-3-methoxy-benzylidene]-thiazolidine-2,4-dione]", "Kd": 0.414},
      {"smiles": "COc1cc(/C=C2\\SC(=O)NC2=O)ccc1OCc1cccc(F)c1", "note": "[Example 38, 5-[4-(3-Fluoro-benzyloxy)-3-methoxy-benzylidene]-thiazolidine-2,4-dione]", "Kd": 3.18},
      {"smiles": "COc1cc(C=C2C(=O)c3ccccc3C2=O)ccc1OCc1cccc(F)c1", "note": "[Example 40, 2-[4-(3-Fluoro-benzyloxy)-3-methoxy-benzylidene]-indan-1,3-dione]", "Kd": 17.7}
    ]}
  ]
}
